Results taken from patent publication US20260130933A1, “PHARMACEUTICAL COMPOSITION FOR PREVENTION OR TREATMENT OF NEPHROPATHY AND/OR DIABETES MELLITUS, COMPRISING ENAVOGLIFLOZIN” (DAEWOONG PHARMACEUTICAL CO., LTD., priority 2022, published 2026).

Experiment: Example 3: phase 3 trial, enavogliflozin 0.3 mg vs dapagliflozin 10 mg once a day for 24 weeks added to metformin and gemigliptin in patients with type 2 diabetes (same endpoints, rescue drug)
Format: in vivo, human
Description: 1) when Metformin (≥1,000 mg/Day) was Administered at a Constant Dose for at Least 8 Weeks Prior to Pre-Visit (Pre-Screening) • Metformin (≥1,000 mg/day) and gemigliptin (50 mg/day) were co-administered during the 8-week stabilization period. […] 4) when Metformin (≥1,000 mg/Day) and Gemigliptin (50 mg/Day) were Co-Administered at Constant Doses for at Least 8 Weeks Prior to Pre-Visit (Prescreening) • Without a separate stabilization period, Pre-visit (pre-screening) was Visit 1 (screening).
Subjects who met the inclusion/exclusion criteria continued to receive metformin and gemigliptin while receiving a placebo of the clinical trial drug in a single-blind (subject-blinded) state for a 2-week run-in period.
Here, the randomized subjects were stratified according to the administration therapy (co-administration with two or less agents (one or two agents) or three or more agents) of a conventional hypoglycemic agent (before washout of another hypoglycemic agent) within 24 weeks prior to obtaining written informed consent and by an HbA1c value (<8% or ≥8%) at Visit 1 (screening) measured in the central laboratory.
The randomized subjects were administered two tablets of the clinical trial drug corresponding to each administration group once a day, and then visited the institution at weeks 6, 12, 18, and 24 during the 24-week administration period to conduct efficacy and safety assessments. In addition, during the clinical trial period, they were instructed to exercise regularly and control their diet without changing their daily life patterns.
• 1) Change in HbA1c at week 24 after administration of clinical trial drug compared to Visit 2 (randomization)
• 1) Change in HbA1c at each time point of weeks 6, 12, and 18 after administration of clinical trial drug compared to Visit 2 (randomization) • 2) Change in FPG at each time point of weeks 6, 12, 18, and 24 after administration of clinical trial drug compared to Visit 2 (randomization) • 3) Proportion of subjects achieving HbA1c<7% at each time point of weeks 6, 12, 18, and 24 after administration of clinical trial drug • 4) Proportion of subjects achieving HbA1c<6.5% at each time point of weeks 6, 12, 18, and 24 after administration of clinical trial drug • 5) Proportion of subjects achieving therapeutic response (HbA1c change (HbA1c at Visit 2—HbA1c at each evaluation time point)>0.5% or HbA1c<7% at each evaluation time point compared to Visit 2 (randomization)) at each time point of weeks 6, 12, 18, and 24 after administration of clinical trial drug • 6) Proportion of subjects achieving therapeutic response (HbA1c change (HbA1c at Visit 2—HbA1c at each evaluation time point)>0.7% or HbA1c<7% at each evaluation time point compared to Visit 2 (randomization)) at each time point of weeks 6, 12, 18, and 24 after administration of clinical trial drug • 7) Proportion of subjects achieving therapeutic response (HbA1c change (HbA1c at Visit 2—HbA1c at each evaluation time point)>1% or HbA1c<7% at each evaluation time point compared to Visit 2 (randomization)) at each time point of weeks 6, 12, 18, and 24 after administration of clinical trial drug

[1] = week 6, modified per-protocol set 1, enavogliflozin 0.3 mg, dapagliflozin 10 mg
[2] = week 6, modified per-protocol set 2
[3] = week 6, modified per-protocol set 2, enavogliflozin 0.3 mg, dapagliflozin 10 mg
[4] = week 6, per-protocol set, enavogliflozin 0.3 mg, dapagliflozin 10 mg

CCOc1ccc(Cc2cc([C@@H]3O[C@H](CO)[C@@H](O)[C@H](O)[C@H]3O)ccc2Cl)cc1 [Dapagliflozin, reference compound]
HbA1c, Mean (SD) (Baseline, PPS): 7.83%
HbA1c, Median (Baseline, PPS): 7.64%
HbA1c change from baseline, ANCOVA LS mean (SE) (Week 24, PPS): −0.86 % p
HbA1c change from baseline, Mean (SD) (Week 24, PPS): −0.89 % p
HbA1c change from baseline, Median (Week 24, PPS): −0.86 % p
HbA1c, Mean (SD) (Week 24, PPS): 6.94%
HbA1c, Median (Week 24, PPS): 6.81%
FPG change from baseline, LS mean (SE) (week 6): −22.71(1.39) mg/dL
HDL-C change from baseline, LS mean (SE) (week 6): 1.13(0.56) mg/dL
HOMA-IR change from baseline, LS mean (SE) (week 6): −0.99(0.14)
HOMA-β change from baseline, LS mean (SE) (week 6): 3.20(3.04)
HbA1c change from baseline, LS mean (SE) (week 6): −0.70(0.03) % p
LDL-C change from baseline, LS mean (SE) (week 6): 1.91(1.78) mg/dL
UACR change from baseline, LS mean (SE) (week 6): −14.85(3.36) g/kg
UGCR change from baseline, LS mean (SE) (week 6): 45.75(2.14) mg/mg
adiponectin change from baseline, LS mean (SE) (week 6): 0.37(0.33) μg/mL
body weight change from baseline, LS mean (SE) (week 6): −1.80(0.16) kg
diastolic blood pressure change from baseline, LS mean (SE) (week 6): −1.88(0.67) mmHg
fasting C-peptide change from baseline, LS mean (SE) (week 6): −0.04(0.02) ng/mL
leptin change from baseline, LS mean (SE) (week 6): −2.03(0.45) ng/mL
systolic blood pressure change from baseline, LS mean (SE) (week 6): −3.49(0.87) mmHg
total cholesterol change from baseline, LS mean (SE) (week 6): 2.63(1.93) mg/dL
triglyceride change from baseline, LS mean (SE) (week 6): −5.39(4.38) mg/dL
Change from baseline in HDL-C, ANCOVA LS mean [1]: 1.13 mg/dL
Change from baseline in HDL-C, Mean [1]: 0.94 mg/dL
Change from baseline in HDL-C, Median [1]: 1.00 mg/dL
Change from baseline in LDL-C, ANCOVA LS mean [1]: 1.91 mg/dL
Change from baseline in LDL-C, Mean [1]: 1.40 mg/dL
Change from baseline in LDL-C, Median [1]: 1.00 mg/dL
Change from baseline in total cholesterol, ANCOVA LS mean [1]: 2.63 mg/dL
Change from baseline in total cholesterol, Mean [1]: 1.55 mg/dL
Change from baseline in total cholesterol, Median [1]: 2.00 mg/dL
Change from baseline in triglycerides, ANCOVA LS mean [1]: -5.39 mg/dL
Change from baseline in triglycerides, Mean [1]: -10.00 mg/dL
Change from baseline in triglycerides, Median [1]: 1.00 mg/dL
Fasting HDL-C, Mean [1]: 48.39 mg/dL
Fasting HDL-C, Median [1]: 48.00 mg/dL
Fasting LDL-C, Mean [1]: 78.50 mg/dL
Fasting LDL-C, Median [1]: 70.00 mg/dL
Fasting total cholesterol, Mean [1]: 145.04 mg/dL
Fasting triglycerides, Mean [1]: 121.81 mg/dL
Fasting triglycerides, Median [1]: 98.00 mg/dL
fasting Total cholesterol, Median [1]: 136.00 mg/dL
Change from baseline in diastolic blood pressure, ANCOVA LS mean [2]: −1.88 mmHg
Change from baseline in diastolic blood pressure, Mean [2]: −1.57 mmHg
Change from baseline in diastolic blood pressure, Median [2]: −2.00 mmHg
Diastolic blood pressure, Mean [2]: 72.20 mmHg
Diastolic blood pressure, Median [2]: 72.00 mmHg
Change from baseline in systolic blood pressure, ANCOVA LS mean [3]: −3.49 mmHg
Change from baseline in systolic blood pressure, Mean [3]: −3.23 mmHg
Change from baseline in systolic blood pressure, Median [3]: −3.50 mmHg
Systolic blood pressure, Mean [3]: 120.64 mmHg
Systolic blood pressure, Median [3]: 119.00 mmHg
Adiponectin, Mean (week 6, per-protocol set): 6.69 µg/mL
Adiponectin, Median (week 6, per-protocol set): 5.80 µg/mL
Change from baseline in HOMA-IR, ANCOVA LS mean (week 6, per-protocol set): −0.99
Change from baseline in HOMA-IR, Mean (week 6, per-protocol set): −0.92
Change from baseline in HOMA-IR, Median (week 6, per-protocol set): −0.72
Change from baseline in HOMA-β, ANCOVA LS mean (week 6, per-protocol set): 3.20
Change from baseline in HOMA-β, Mean (week 6, per-protocol set): 4.48
Change from baseline in HOMA-β, Median (week 6, per-protocol set): 5.30
Change from baseline in UACR, ANCOVA LS mean (week 6, per-protocol set): -14.85 g/kg
Change from baseline in UACR, Mean (week 6, per-protocol set): -7.25 g/kg
Change from baseline in UACR, Median (week 6, per-protocol set): -0.40 g/kg
Change from baseline in UGCR, ANCOVA LS mean (week 6, per-protocol set): 45.75 mg/mg
Change from baseline in UGCR, Mean (week 6, per-protocol set): 43.58 mg/mg
Change from baseline in UGCR, Median (week 6, per-protocol set): 42.62 mg/mg
Change from baseline in adiponectin, ANCOVA LS mean (week 6, per-protocol set): 0.37 µg/mL
Change from baseline in adiponectin, Mean (week 6, per-protocol set): 0.31 µg/mL
Change from baseline in adiponectin, Median (week 6, per-protocol set): 0.34 µg/mL
Change from baseline in leptin, ANCOVA LS mean (week 6, per-protocol set): -2.03 ng/mL
Change from baseline in leptin, Mean (week 6, per-protocol set): -2.04 ng/mL
Change from baseline in leptin, Median (week 6, per-protocol set): -1.26 ng/mL
HOMA-IR (insulin resistance), Mean (week 6, per-protocol set): 1.90
HOMA-IR (insulin resistance), Median (week 6, per-protocol set): 1.66
HOMA-β (beta-cell function), Mean (week 6, per-protocol set): 44.56
HOMA-β (beta-cell function), Median (week 6, per-protocol set): 36.75
Leptin, Mean (week 6, per-protocol set): 8.78 ng/mL
Leptin, Median (week 6, per-protocol set): 7.03 ng/mL
UACR, Mean (week 6, per-protocol set): 23.20 g/kg
UACR, Median (week 6, per-protocol set): 11.20 g/kg
UGCR, Mean (week 6, per-protocol set): 45.12 mg/mg
UGCR, Median (week 6, per-protocol set): 43.37 mg/mg
Body weight, Mean [4]: 65.20 kg
Change from baseline in FPG, ANCOVA LS mean [4]: -22.71 mg/dL
Change from baseline in FPG, Mean [4]: -22.87 mg/dL
Change from baseline in FPG, Median [4]: -18.50 mg/dL
Change from baseline in HbA1c, ANCOVA LS mean [4]: −0.70 % p
Change from baseline in HbA1c, Mean [4]: −0.72 % p
Change from baseline in HbA1c, Median [4]: −0.65 % p
Change from baseline in body weight, ANCOVA LS mean [4]: -1.80 kg
Change from baseline in body weight, Mean [4]: -1.68 kg
Change from baseline in body weight, Median [4]: -1.55 kg
Change from baseline in fasting C-peptide, ANCOVA LS mean [4]: -0.04 ng/mL
Change from baseline in fasting C-peptide, Mean [4]: -0.04 ng/mL
Change from baseline in fasting C-peptide, Median [4]: -0.03 ng/mL
FPG, Mean [4]: 117.64 mg/dL
FPG, Median [4]: 116.50 mg/dL
Fasting C-peptide, Mean [4]: 0.65 ng/mL
Fasting C-peptide, Median [4]: 0.63 ng/mL
HbA1c, Mean [4]: 7.10%
